Experimental data taken from patent US9629816B2, “Small molecule therapeutic compounds targeting thioesterase deficiency disorders and methods of using the same” (The United States of America, as represented by the …, priority 2011, dated 2017).

Legend:
[1] = Cleavage of thioester linkage in [14C]palmitoyl-CoA, release of free [14C]palmitate (TLC, autoradiography); assay type: biochemical; conditions: varying concentrations; various incubation times; [14C]palmitate production
Procedure: It has been reported that thioester linkages in s-acylated proteins are labile, and that compounds having nucleophilic properties are able to disrupt such linkages. Thus, the ability of derivatives of hydroxylamine to disrupt thioester linkages in s-acylated proteins was tested. Twelve HA-derivatives, described in Table 1, were screened for their ability to cleave thioester linkage in [^14C]palmitoyl˜CoA (a model thioester substrate of PPT1), mediating the release of free [^14C]palmitic acid, a process depicted in FIG. 2. […] [^14C]-palmitoyl-CoA was incubated for 1 hour with each of the HA derivatives and the reaction mixture was resolved by thin layer chromatography (TLC) followed by autoradiography. The free [^14C]-palmitate bands were visible and quantitated by densitometric analysis of the bands.

[2] = Solubility in tissue culture media; assay type: physicochemical
INCL fibroblasts = assay: MTT viability of cultured INCL fibroblasts; assay type: cell-based, human; conditions: 48 hours of treatment; viability as percent of untreated control (FIG. 4A-C)
Procedure: Ten out of the twelve HA-derivative compounds listed in Table 1 were tested to determine whether they adversely affected the viability of cultured cells from INCL patients. […] Briefly, following treatment with HA-derivatives INCL cells were incubated with Thiazolyl Blue Tetrazolium […] for 4 hours at 37° C. Formazan crystals thus formed were dissolved in acidified isopropanol and absorption was measured at 570 nm. Viability was expressed as percent of untreated control.
Briefly, normal fibroblasts (GM 00498) were obtained from the Coriell Institute of Medical Research, USA. PPT1-deficient INCL fibroblasts were isolated from skin biopsy samples of INCL patients admitted to an ongoing clinical protocol (#01-CH-0086) approved by the Institutional Review Board (IRB) of the National Institute of Child Health and Human Development (NICHD) at the National Institute of Health (NIH). […] The fibroblasts were cultured in the presence or absence of varying concentrations of each of the HA-derivatives for 48 hours, after which the viability of the cells was determined using the MTT-Cell Viability Assay by T. Mossman, (Rapid colorimetric assay for cellular growth and survival. J. Immunol. Method. 65 (1983) 55-63).

Row | SMILES | dose- and time-dependence of thioester linkage cleavage in [14C]palmitoyl-CoA [1] | solubility in tissue culture media [2] | other results
1 | CNO [methyl-HA, N-Methylhydroxylamine] | cleaved the thioester linkage in a dose-dependent and time-dependent manner |  | 
2 | ON(Cc1ccccc1)Cc1ccccc1 [N,N-dibenzylhydroxylamine, N,N-Dibenzylhydroxylamine] |  | insoluble in tissue culture media | 
3 | CC(ON(C(c1ccccc1)C(C)C)C(C)(C)C)c1ccc(CCl)cc1 (centres unmarked) [N-tert-Butyl-O-[1-[4-(chloromethyl)phenyl]ethyl]-N-(2-methyl-1-phenylpropyl)hydroxylamine] |  | insoluble in tissue culture media | 
4 | ONCc1ccccc1 [benzyl-HA, N-Benzylhydroxylamine] | cleaved the thioester linkage in a dose-dependent and time-dependent manner |  | 
5 | O=C(c1ccccc1)N(O)c1ccccc1 [N-Benzoyl-N-phenyl hydroxylamine] |  |  | toxicity / viability of INCL cells (MTT) (INCL fibroblasts): all ten compounds except N-Benzoyl-N-phenyl hydroxylamine are non-toxic
